Data: patent publication US10138222B2, “Substituted benzamides as RIPK2 inhibitors” (Boehringer Ingelheim International GmbH, priority 2016, dated 2018)

What follows are compounds tested against RIPK2 (Homo sapiens (Human), UniProt O43353) (assay: RIPK2 inhibition, ADP-Glo Kinase Assay). Conditions: 8His-RIPK2 FL enzyme 8 nM, ATP 5 μM, 15 minutes pre-incubation, 60 minutes at 37° C., luminescence.
Type: biochemical
Method: RIPK2 inhibition for compounds in Table 1 are shown in Table 3 and measured using the following method:
Materials: White, 384-well optiplates (cat.no. 6007290) were purchased from PerkinElmer. The V9103X ADP-Glo Kinase Assay Custom (including ultra-pure ATP) was purchased from Promega. 8His-RIPK2 FL was prepared in-house. All other materials were of highest grade commercially available.
Method: In a 384-well plate, test compound diluted in assay buffer (1% DMSO final) is mixed with 8His-RIPK2 FL enzyme (final concentration of 8 nM). After 15 minutes of pre-incubation at RT, ATP dissolved in assay buffer is added (final concentration 5 μM). The mixture is incubated for 60 minutes at 37° C. in a humidified incubator. Then, ADP Glo Reagent is added, followed by a 40 minute incubation at rt. Finally, Kinase Detection Reagent is added and the entire mixture is incubated for 40 min at RT. The luminescence signal is measured with an Envision reader to determine the amount of ADP produced. Assay buffer: 25 mM HEPES (4-(2-hydroxyethyl)-1-piperazinethanesulfonic acid), 0.1% BSA (bovine serum albumin), 10 mM MgCl2, 5 mM MnCl2, 50 mM KCl, 0.01% CHAPS (3-[(3-cholamidopropyl)dimethylammonio]-1-propanesulfonate), 10 μM Na3VO4, 1 mM DTT (dithiothreitol), pH 7.5 All plates contain wells with vehicle controls instead of compound (1% DMSO) as reference for the high signal (100% CTL (100% of control), high signal), and wells without enzyme as reference for low signal (0% CTL, low signal). The luminescent signal generated is proportional to the ADP produced and is correlated with enzyme activity. The analysis of the data is performed by the calculation of the percentage of ADP production in the presence of the test compound and RIPK2 as compared to the ADP production in the presence of RIPK2 plus 50 μM Gefitinib. (RLU (relative luminescence units) (sample)−RLU(low control))*100/(RLU(high value)−RLU(low control)) [RLU=relative luminescence units].

Sequence of RIPK2 (O43353 whole entry): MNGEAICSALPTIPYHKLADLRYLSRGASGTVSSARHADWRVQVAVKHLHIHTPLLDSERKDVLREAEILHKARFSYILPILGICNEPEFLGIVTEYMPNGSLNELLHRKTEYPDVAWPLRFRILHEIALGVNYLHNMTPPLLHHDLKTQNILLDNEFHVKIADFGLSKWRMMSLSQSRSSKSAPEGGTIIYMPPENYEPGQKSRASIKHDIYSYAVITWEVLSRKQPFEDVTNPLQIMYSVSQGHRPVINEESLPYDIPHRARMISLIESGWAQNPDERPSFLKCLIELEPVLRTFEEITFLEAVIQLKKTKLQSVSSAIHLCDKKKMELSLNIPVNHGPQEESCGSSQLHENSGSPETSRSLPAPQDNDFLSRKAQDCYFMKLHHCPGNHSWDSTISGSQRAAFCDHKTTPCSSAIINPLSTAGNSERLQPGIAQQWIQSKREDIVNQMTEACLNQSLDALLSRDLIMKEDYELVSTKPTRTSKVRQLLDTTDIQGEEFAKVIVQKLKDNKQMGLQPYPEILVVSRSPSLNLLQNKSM

| SMILES | IC50 [nM] |
| --- | --- |
| Cc1ccc(C(=O)NC2CC2)cc1-c1cnn(-c2cncc(NC(=O)CC(C)C)c2)c1 [Example 114, N-cyclopropyl-4-methyl-3-{1-[5-(3-methylbutanamido)pyridin-3-yl]-1H-pyrazol-4-yl}benzamide] | 2.7 |
| Cc1ccc(C(=O)NC2CC2)cc1-c1cnn(-c2cncc(NC(=O)C3CCC3)c2)c1 [Example 115, 3-[1-(5-cyclobutaneamidopyridin-3-yl)-1H-pyrazol-4-yl]-N-cyclopropyl-4-methylbenzamide] | 2.7 |
| Cc1ccc(C(=O)NC2CC2)cc1-c1cnn(-c2cncc(NC(=O)CF)c2)c1 [Example 116, N-cyclopropyl-3-{1-[5-(2-fluoroacetamido)pyridin-3-yl]-1H-pyrazol-4-yl}-4-methylbenzamide] | 7.2 |
| CCC(=O)Nc1cncc(-n2cc(-c3cc(C(=O)NC4CC4)ccc3C)cn2)c1 [Example 117, N-cyclopropyl-4-methyl-3-[1-(5-propanamidopyridin-3-yl)-1H-pyrazol-4-yl]benzamide] | 3.4 |
| Cc1ccc(C(=O)NC2CC2)cc1-c1cnn(-c2cncc(NS(C)(=O)=O)c2)c1 [Example 122, N-cyclopropyl-3-[1-(5-methanesulfonamidopyridin-3-yl)-1H-pyrazol-4-yl]-4-methyl-benzamide] | 9.5 |
| CC(=O)N1CC(Oc2cncc(-n3cc(-c4cc(C(=O)NC5CC5)ccc4C)cn3)c2)C1 [Example 124, 3-(1-{5-[(1-acetylazetidin-3-yl)oxy]pyridin-3-yl}-1H-pyrazol-4-yl)-N-cyclopropyl-4-methylbenzamide] | 13 |
| CC(=O)N1CC[C@H](Oc2cncc(-n3cc(-c4cc(C(=O)NC5CC5)ccc4C)cn3)c2)C1 [Example 129, 3-[1-(5-{[(3S)-1-acetylpyrrolidin-3-yl]oxy}pyridin-3-yl)-1H-pyrazol-4-yl]-N-cyclopropyl-4-methyl-benzamide] | 44 |
| Cc1ccc(C(=O)NC2CC2)cc1-c1cnn(-c2cncc(C3(C#N)CC3)c2)c1 [Example 131, 3-{1-[5-(1-cyanocyclopropyl)pyridin-3-yl]-1H-pyrazol-4-yl}-N-cyclo-propyl-4-methylbenzamide] | 11 |
| Cc1ccc(C(=O)NC2CC2)cc1-c1cnn(-c2cncc(C3(O)CCOCC3)c2)c1 [Example 137, N-cyclopropyl-3-{1-[5-(4-hydroxy-oxan-4-yl)pyridin-3-yl]-1H-pyrazol-4-yl}-4-methylbenzamide] | 120 |
| Cc1ccc(C(=O)NC2CC2)cc1-c1cnn(-c2cncc(C3(O)CCOC3)c2)c1 (centres unmarked) [Example 138, N-cyclopropyl-3-{1-[5-(3-hydroxy-oxolan-3-yl)pyridin-3-yl]-1H-pyrazol-4-yl}-4-methylbenzamide] | 25 |
| Cc1ccc(C(=O)NC2CC2)cc1-c1cnn(-c2cncc(NC(=O)NC3CCOC3)c2)c1 (centres unmarked) [Example 142, N-cyclopropyl-4-methyl-3-[1-(5-{[(oxolan-3-yl)carbamoyl]amino}pyridin-3-yl)-1H-pyrazol-4-yl] benzamide] | 3.2 |
| Cc1ccc(C(=O)NC2CC2)cc1-c1cnn(-c2cncc(NC(=O)C3CC3)c2)c1 [Example 144, 3-[1-(5-cyclopropaneamidopyridin-3-yl)-1H-pyrazol-4-yl]-N-cyclo-propyl-4-methylbenzamide] | 2.9 |
| Cc1ccc(C(=O)NC2CC2)cc1-c1cnn(-c2cncc(OC3CCOC3)c2)c1 (centres unmarked) [Example 145, N-cyclopropyl-4-methyl-3-{1-[5-(oxolan-3-yloxy)pyridin-3-yl]-1H-pyrazol-4-yl}benzamide] | 4.7 |
| Cc1ccc(C(=O)NC2CC2)cc1-c1cnn(-c2cncc(OC3CCCC3)c2)c1 [Example 148, 3-{1-[5-(cyclopentyloxy)pyridin-3-yl]-1H-pyrazol-4-yl}-N-cyclopropyl-4-methylbenzamide] | 12 |

The remaining compounds from weak to strong by IC50, led by results:

| IC50 [nM] | SMILES |
| --- | --- |
| 130 | Cc1ccc(C(=O)NC2CC2)cc1-c1cnn(-c2cncc([C@H]3CCC(=O)N3C)c2)c1 [Example 125, N-cyclopropyl-4-methyl-3-(1-{5-[(2R)-1-methyl-5-oxopyrrolidin-2-yl]pyridin-3-yl}-1H-pyrazol-4-yl)benzamide] |
| 120 | Cc1ccc(C(=O)NC2CC2)cc1-c1cnn(-c2cncc(CN3CCOCC3=O)c2)c1 [Example 135, N-cyclopropyl-4-methyl-3-(1-{5-[(3-oxomorpholin-4-yl)methyl]pyridin-3-yl}-1H-pyrazol-4-yl)benzamide] |
| 110 | Cc1ccc(C(=O)NC2CC2)cc1-c1cnn(-c2cncc(N(C)C)n2)c1 [Example 118, N-cyclopropyl-3-{1-[6-(dimethylamino)pyrazin-2-yl]-1H-pyrazol-4-yl}-4-methylbenzamide] |
| 94 | Cc1ccc(C(=O)NC2CC2)cc1-c1cnn(-c2cncc(C3CCOCC3)n2)c1 [Example 128, N-cyclopropyl-4-methyl-3-{1-[6-(oxan-4-yl)pyrazin-2-yl]-1H-pyrazol-4-yl}benzamide] |
| 86 | COc1cncc(-n2cc(-c3cc(C(=O)NC4CC4)ccc3C)cn2)n1 [Example 127, N-cyclopropyl-3-[1-(6-methoxy-pyrazin-2-yl)-1H-pyrazol-4-yl]-4-methylbenzamide] |
| 43 | CN(C)c1cncc(-n2cc(-c3cc(C(=O)NC4CC4)c(F)cc3Cl)cn2)n1 [Example 123, 4-chloro-N-cyclopropyl-5-{1-[6-(dimethylamino)pyrazin-2-yl]-1H-pyrazol-4-yl}-2-fluorobenzamide] |
| 43 | Cc1ccc(C(=O)NC2CC2)cc1-c1cnn(-c2cncc(C(C)N3CCCCS3(=O)=O)c2)c1 (centres unmarked) [Example 136, N-cyclopropyl-3-(1-{5-[1-(1,1-dioxo-1λ^6,2-thiazinan-2-yl)ethyl]pyridin-3-yl}-1H-pyrazol-4-yl)-4-methyl-benzamide] |
| 38 | Cc1ccc(C(=O)NC2CC2)cc1-c1cnn(-c2cncc(C(C)N3CCCC3=O)c2)c1 (centres unmarked) [Example 140, N-cyclopropyl-4-methyl-3-(1-{5-[1-(2-oxopyrrolidin-1-yl)ethyl]pyridin-3-yl}-1H-pyrazol-4-yl)benzamide] |
| 24 | Cc1cncc(-n2cc(-c3cc(C(=O)NC4CC4)ccc3C)cn2)c1 [Example 119, N-cyclopropyl-4-methyl-3-[1-(5-methylpyridin-3-yl)-1H-pyrazol-4-yl]benzamide] |
| 20 | CC(=O)N1CC[C@@H](Oc2cncc(-n3cc(-c4cc(C(=O)NC5CC5)ccc4C)cn3)c2)C1 [Example 126, 3-[1-(5-{[(3R)-1-acetylpyrrolidin-3-yl]oxy}pyridin-3-yl)-1H-pyrazol-4-yl]-N-cyclopropyl-4-methyl-benzamide] |
| 13 | Cc1ccc(C(=O)NC2CC2)cc1-c1cnn(-c2cncc(NC(=O)C(C)(C)C)c2)c1 [Example 121, N-cyclopropyl-3-{1-[5-(2,2-dimethylpropanamido)pyridin-3-yl]-1H-pyrazol-4-yl}-4-methyl-benzamide] |
| 8.9 | CC(=O)N1CCC(Oc2cncc(-n3cc(-c4cc(C(=O)NC5CC5)ccc4C)cn3)c2)CC1 [Example 149, 3-(1-{5-[(1-acelylpiperidin-4-yl)oxy]pyridin-3-yl}-1H-pyrazol-4-yl)-N-cyclopropyl-4-methyl-benzamide] |
| 8.1 | Cc1ccc(C(=O)NC2CC2)cc1-c1cnn(-c2cncc(OCC3CCOCC3)c2)c1 [Example 147, N-cyclopropyl-4-methyl-3-{1-[5-(oxan-4-ylmethoxy)pyridin-3-yl]-1H-pyrazol-4-yl}benzamide] |
| 7 | Cc1ccc(C(=O)NC2CC2)cc1-c1cnn(-c2cncc(OC[C@H]3CCCO3)c2)c1 [Example 150, N-cyclopropyl-4-methyl-3-(1-{5-[(2R)-oxolan-2-ylmethoxy]pyridin-3-yl}-1H-pyrazol-4-yl) benzamide] |
| 6.1 | COCCC(=O)Nc1cncc(-n2cc(-c3cc(C(=O)NC4CC4)ccc3C)cn2)c1 [Example 143, N-cyclopropyl-3-{1-[5-(3-methoxypropanamido)pyridin-3-yl]-1H-pyrazol-4-yl}-4-methylbenzamide] |
| 6.1 | Cc1ccc(C(=O)NC2CC2)cc1-c1cnn(-c2cncc(OCC3CC3)c2)c1 [Example 146, N-cyclopropyl-3-{1-[5-(cyclopropylmethoxy)pyridin-3-yl]-1H-pyrazol-4-yl}-4-methyl-benzamide] |
| 3.5 | Cc1ccc(C(=O)NC2CC2)cc1-c1cnn(-c2cncc(NC(=O)C(C)C)c2)c1 [Example 113, N-cyclopropyl-4-methyl-3-{1-[5-(2-methylpropanamido)pyridin-3-yl]-1H-pyrazol-4-yl}benzamide] |
| 2.6 | CNc1cncc(-n2cc(-c3cc(C(=O)NC4CC4)ccc3C)cn2)c1 [Example 141, N-cyclopropyl-4-methyl-3-{1-[5-(methylamino)pyridin-3-yl]-1H-pyrazol-4-yl}benzamide] |
